From EPA's ToxValDB 9.5 (doi:10.2903/j.efsa.2013.3111) come the findings set out here.

The subject of data set [1] is Anas platyrhynchos.
In data set [2] the test system is Apis mellifera. The following applies: acute; duration: 48 hours; oral; unspecified; mortality.
Data set [3] deals with Bibionidae. The following applies: chronic/long-term; duration: 28 days; other.
Data set [4] has as its system Colinus virginianus. The settings on record: acute, oral, mortality.
The subject of data set [5] is Daphnia magna. The settings on record: chronic/long-term; duration: 21 days; reproduction.
Data set [6] concerns Pimephales promelas.
Data set [7] relates to Rattus norvegicus.
Data set [8] relates to Tagia sp.
For data set [9], the system named is Typhlodromus pyri. The data set is described as follows: LR50; higher = less toxic. The following applies: duration: 7 days, mortality.

SMILES strings stand for the structures. Converted amounts (≈) assume the structure as drawn.

As to `CC(C)CC(C)c1sccc1NC(=O)c1cn(C)nc1C(F)(F)F` (stereo unspecified) [Penthiopyrad], the LOAEL (as a rule, the lowest dose or exposure tested at which an adverse effect was seen) in data set [1] (reproductive, reproduction) was 719 mg/kg-day. For the same compound, the NOAEL – broadly, the highest tested level that showed no adverse finding – turned out to be 207 mg/kg-day in data set [1] (reproductive, reproduction) and 54 mg/kg-day in data set [7] (chronic, body weight). Besides, the LC50 is > 5790 mg/kg-day in data set [1] (short-term, oral, feed, no effects); 0.29 µg/mL (≈ 0.807 µM) in data set [6] (acute, duration: 96 hours, mortality); > 1000 mg/kg in data set [8] (acute, duration: 14 days, mortality). Moreover, the LD50 in [2] is > 500 µg/piece; in [4] (diet), > 1910 mg/kg-day; in data set [4] it was > 2250 mg/kg-day; in data set [7] (acute, oral, mortality), > 2000 mg/kg. Also, the NOAEC in data set [3] turned out to be 50 mg/kg; in data set [5], 471 µg/L; in data set [6] (chronic/long-term, duration: 33 days, growth), 51 µg/L. Moreover, the NOEC in data set [8] (chronic/long-term, duration: 56 days, reproduction) was ≥ 48 mg/kg. Moreover, the LR50 in data set [9] (acute) was determined as 238 g/ha; in [9] (chronic/long-term) it was 124 g/ha.
